The results in this text go back to US20240108006A1, “PESTICIDALLY ACTIVE HETEROAROMATIC COMPOUNDS” (SYNGENTA CROP PROTECTION AG, priority 2021, published 2024).

What all share (type): in vivo
The subject of one experiment is Spodoptera littoralis. Put plainly: Example B9: Spodoptera littoralis (Egyptian cotton leaf worm), cotton leaf discs, L1 larvae. To be noted: foliar, 72 h, application rate of 200 ppm, 3 days after infestation, read-out: control in at least one of the three categories (mortality, anti-feedant effect, or growth inhibition). The method, then: Example B9: Spodoptera littoralis (Egyptian Cotton Leaf Worm)
Cotton leaf discs were placed onto agar in 24-well microtiter plates and sprayed with aqueous test solutions prepared from 10,000 ppm DMSO stock solutions. After drying the leaf discs were infested with five L1 larvae. The samples were assessed for mortality, anti-feeding effect, and growth inhibition in comparison to untreated samples 3 days after infestation. Control of Spodoptera littoralis by a test sample is given when at least one of the categories mortality, anti-feedant effect, and growth inhibition is higher than the untreated sample.

The next experiment has as its system Chilo suppressalis. Briefly: Example B1: Chilo suppressalis (striped rice stemborer), artificial diet, L2 larvae. Conditions: 144 h, application rate of 200 ppm, 6 days after infestation, read-out: control in at least one of the three categories (mortality, anti-feedant effect, or growth inhibition). As for the experimental part:
Example B1: Chilo suppressalis (Striped Rice Stemborer)
24-well microtiter plates with artificial diet were treated with aqueous test solutions prepared from 10,000 ppm DMSO stock solutions by pipetting. After drying, the plates were infested with L2 larvae (6-8 per well). The samples were assessed for mortality, anti-feeding effect, and growth inhibition in comparison to untreated samples 6 days after infestation. Control of Chilo suppressalis by a test sample is given when at least one of the categories mortality, anti-feedant effect, and growth inhibition is higher than the untreated sample.

The next experiment has as its system Plutella xylostella. Briefly: Example B8: Plutella xylostella (diamond back moth), artificial diet 24-well, eggs. Conditions: 192 h, application rate of 200 ppm, 8 days after infestation, read-out: effect in at least one of the two categories (mortality or growth inhibition). The method, then: Example B8: Plutella xylostella (Diamond Back Moth)
24-well microtiter plates with artificial diet were treated with aqueous test solutions prepared from 10,000 ppm DMSO stock solutions by pipetting. After drying, Plutella eggs were pipetted through a plastic stencil onto a gel blotting paper and the plate was closed with it. The samples were assessed for mortality and growth inhibition in comparison to untreated samples 8 days after infestation.
The following compounds gave an effect of at least 80% in at least one of the two categories (mortality or growth inhibition) at an application rate of 200 ppm: […]

Molecules are shown by their SMILES.

As for `CC(NC(=S)Nc1cc(C(F)(F)F)cc(C(F)(F)F)c1)c1ncnn1-c1ncccn1` (centres unmarked) [Example P3, 1-[3,5-bis(trifluoromethyl)phenyl]-3-[1-(2-pyrimidin-2-yl-1,2,4-triazol-3-yl)ethyl]thiourea], the percent control (mortality, anti-feedant effect or growth inhibition) at 200 ppm in the experiment with Spodoptera littoralis was no less than 80%. On to `C[C@H](NC(=O)Nc1ccc(C(F)(F)F)c(Cl)c1)c1nccnc1-c1ccc(C#N)cn1` [Example P9, 1-[3-chloro-4-(trifluoromethyl)phenyl]-3-[(1S)-1-[3-(5-cyano-2-pyridyl)pyrazin-2-yl]ethyl]urea], for which the percent control (mortality, anti-feedant effect or growth inhibition) at 200 ppm in the experiment on Chilo suppressalis is no less than 80%. The percent effect (mortality or growth inhibition) at 200 ppm in the experiment on Plutella xylostella is no less than 80%.

Turning to `C[C@H](NC(=O)Nc1ccc(C(F)(F)F)c(Cl)c1)c1nccnc1-c1ncccn1` [Example P10, 1-[3-chloro-4-(trifluoromethyl)phenyl]-3-[(1S)-1-(3-pyrimidin-2-ylpyrazin-2-yl)ethyl]urea], the percent control (mortality, anti-feedant effect or growth inhibition) at 200 ppm in the experiment on Chilo suppressalis is no less than 80%. For the same molecule, in the experiment with Plutella xylostella, the percent effect (mortality or growth inhibition) at 200 ppm is no less than 80%.

As to `C[C@H](NC(=O)Nc1ncc(C(F)(F)F)cc1Cl)c1ncnn1-c1ncccn1` [Example P25, 1-[3-chloro-5-(trifluoromethyl)-2-pyridyl]-3-[(1S)-1-(2-pyrimidin-2-yl-1,2,4-triazol-3-yl)ethyl]urea], in the experiment on Chilo suppressalis, the percent control (mortality, anti-feedant effect or growth inhibition) at 200 ppm is no less than 80%. Besides, in the experiment on Plutella xylostella, the percent effect (mortality or growth inhibition) at 200 ppm is no less than 80%. For `C[C@H](NC(=O)N1CCc2ccc(C(F)(F)F)cc21)c1ncnn1-c1ncccn1` [Example P50, N-[(1S)-1-(2-pyrimidin-2-yl-1,2,4-triazol-3-yl)ethyl]-6-(trifluoromethyl)indoline-1-carboxamide], the percent control (mortality, anti-feedant effect or growth inhibition) at 200 ppm in the experiment with Chilo suppressalis is no less than 80%. Besides, in the experiment with Plutella xylostella, the percent effect (mortality or growth inhibition) at 200 ppm was no less than 80%. Regarding `C[C@H](NC(=O)Nc1ccc(Cl)cc1Oc1ccc(Cl)cc1)c1ncnn1-c1ncccn1` [Example P51, 1-[4-chloro-2-(4-chlorophenoxy)phenyl]-3-[(1S)-1-(2-pyrimidin-2-yl-1,2,4-triazol-3-yl)ethyl]urea], the percent control (mortality, anti-feedant effect or growth inhibition) at 200 ppm with Chilo suppressalis was no less than 80%. In addition, in the experiment with Plutella xylostella, the percent effect (mortality or growth inhibition) at 200 ppm is no less than 80%.

In the case of `C[C@H](NC(=O)Nc1ccccc1OC(F)F)c1ncnn1-c1ncccn1` [Example P107, 1-[2-(difluoromethoxy)phenyl]-3-[(1S)-1-(2-pyrimidin-2-yl-1,2,4-triazol-3-yl)ethyl]urea], the percent control (mortality, anti-feedant effect or growth inhibition) at 200 ppm in the experiment with Chilo suppressalis was no less than 80%. In addition, the percent effect (mortality or growth inhibition) at 200 ppm in the experiment with Plutella xylostella was no less than 80%.

Take `C[C@H](NC(=O)Nc1ccc(C(F)(F)F)c(Cl)c1)c1ncnn1-c1ncccn1` [Example P128, 1-[3-chloro-4-(trifluoromethyl)phenyl]-3-[(1S)-1-(2-pyrimidin-2-yl-1,2,4-triazol-3-yl)ethyl]urea]: the percent control (mortality, anti-feedant effect or growth inhibition) at 200 ppm in the experiment on Chilo suppressalis is no less than 80%. The percent effect (mortality or growth inhibition) at 200 ppm in the experiment with Plutella xylostella was no less than 80%. For `C[C@H](NC(=O)Nc1cc(C(F)(F)F)c(Cl)cc1Cl)c1ncnn1-c1ncc(C(=O)N(C)C)s1` [Example P170, 2-[5-[(1S)-1-[[2,4-dichloro-5-(trifluoromethyl)phenyl]carbamoyl-amino]ethyl]-1,2,4-triazol-1-yl]-N, N-dimethyl-thiazole-5-carboxamide], in the experiment on Chilo suppressalis, the percent control (mortality, anti-feedant effect or growth inhibition) at 200 ppm was no less than 80%. Further, the percent effect (mortality or growth inhibition) at 200 ppm in the experiment with Plutella xylostella was no less than 80%. As for `COc1cc(NC(=O)N[C@@H](C)c2ncnn2-c2ncccn2)c(Br)cc1Br` [Example P200, 1-(2,4-dibromo-5-methoxy-phenyl)-3-[(1S)-1-(2-pyrimidin-2-yl-1,2,4-triazol-3-yl)ethyl]urea], in the experiment with Chilo suppressalis, the percent control (mortality, anti-feedant effect or growth inhibition) at 200 ppm was no less than 80%. Also, in the experiment on Plutella xylostella, the percent effect (mortality or growth inhibition) at 200 ppm was no less than 80%.

Take `CC(C)OC(=O)c1cc(NC(=O)N[C@@H](C)c2ncnn2-c2ncccn2)c(F)cc1Cl` [Example P217, isopropyl 2-chloro-4-fluoro-5-[[(1S)-1-(2-pyrimidin-2-yl-1,2,4-triazol-3-yl)ethyl]carbamoylamino]benzoate]: the percent control (mortality, anti-feedant effect or growth inhibition) at 200 ppm in the experiment with Chilo suppressalis is no less than 80%. In addition, the percent effect (mortality or growth inhibition) at 200 ppm with Plutella xylostella was no less than 80%. Consider `COc1cc(NC(=O)N[C@@H](C)c2ncnn2-c2ncccn2)c(F)cc1Br` [Example P220, 1-(4-bromo-2-fluoro-5-methoxy-phenyl)-3-[(1S)-1-(2-pyrimidin-2-yl-1,2,4-triazol-3-yl)ethyl]urea], for which the percent control (mortality, anti-feedant effect or growth inhibition) at 200 ppm in the experiment with Chilo suppressalis is no less than 80%. The percent effect (mortality or growth inhibition) at 200 ppm in the experiment with Plutella xylostella is no less than 80%. Regarding `CC(=O)c1cc(NC(=O)N[C@@H](C)c2ncnn2-c2ncccn2)c(Cl)cc1Cl` [Example P229, 1-(5-acetyl-2,4-dichloro-phenyl)-3-[(1S)-1-(2-pyrimidin-2-yl-1,2,4-triazol-3-yl)ethyl]urea], in the experiment with Plutella xylostella, the percent effect (mortality or growth inhibition) at 200 ppm was no less than 80%.

On to `C[C@H](NC(=O)Nc1cc(OC(F)(F)C(F)F)c(Cl)cc1Cl)c1nccnc1-c1ccc(C#N)cn1` [Example P245, 1-[(1S)-1-[3-(5-cyano-2-pyridyl)pyrazin-2-yl]ethyl]-3-[2,4-dichloro-5-(1,1,2,2-tetrafluoroethoxy)phenyl]urea], for which the percent control (mortality, anti-feedant effect or growth inhibition) at 200 ppm with Chilo suppressalis was no less than 80%. For the same molecule, the percent effect (mortality or growth inhibition) at 200 ppm in the experiment on Plutella xylostella was no less than 80%. Regarding `CC(NC(=O)Nc1ccc(Cl)c(C(F)(F)F)c1)c1nccnc1-n1nccn1` (centres unmarked) [Example P259, 1-[4-chloro-3-(trifluoromethyl)phenyl]-3-[1-[3-(triazol-2-yl)pyrazin-2-yl]ethyl]urea], the percent effect (mortality or growth inhibition) at 200 ppm in the experiment on Plutella xylostella was no less than 80%. For the molecule `CC(NC(=O)Nc1cc(C(F)(F)F)c(Cl)cc1Br)c1nccnc1-n1nccn1` (centres unmarked) [Example P260, 1-[2-bromo-4-chloro-5-(trifluoromethyl)phenyl]-3-[1-[3-(triazol-2-yl)pyrazin-2-yl]ethyl]urea], the percent control (mortality, anti-feedant effect or growth inhibition) at 200 ppm with Chilo suppressalis is no less than 80%. The percent effect (mortality or growth inhibition) at 200 ppm with Plutella xylostella is no less than 80%. Turning to `C[C@@H](c1ncnn1-c1ncccn1)N(C)C(=O)N(C)c1cnc(C(F)(F)F)cc1Cl` [Example P270, 1-[4-chloro-6-(trifluoromethyl)-3-pyridyl]-1,3-dimethyl-3-[(1S)-1-(2-pyrimidin-2-yl-1,2,4-triazol-3-yl)ethyl]urea], the percent control (mortality, anti-feedant effect or growth inhibition) at 200 ppm with Chilo suppressalis was no less than 80%. The percent effect (mortality or growth inhibition) at 200 ppm with Plutella xylostella was no less than 80%.

In the case of `C[C@H](NC(=O)Nc1c(Cl)cc(Cl)c(OC(F)(F)C(F)F)c1I)c1nccnc1-c1ccc(C#N)cn1` [Example P275, 1-[(1S)-1-[3-(5-cyano-2-pyridyl)pyrazin-2-yl]ethyl]-3-[4,6-dichloro-2-iodo-3-(1,1,2,2-tetrafluoroethoxy)phenyl]urea], in the experiment on Chilo suppressalis, the percent control (mortality, anti-feedant effect or growth inhibition) at 200 ppm is no less than 80%. For the same molecule, in the experiment with Plutella xylostella, the percent effect (mortality or growth inhibition) at 200 ppm is no less than 80%. As to `COc1cc(NC(=O)N[C@@H](C)c2ncnn2-c2ncccn2)c(I)cc1Cl` [Example P288, 1-(4-chloro-2-iodo-5-methoxy-phenyl)-3-[(1S)-1-(2-pyrimidin-2-yl-1,2,4-triazol-3-yl)ethyl]urea], the percent effect (mortality or growth inhibition) at 200 ppm with Plutella xylostella was no less than 80%. Still for that read-out and setting: then `Cc1cc(NC(=O)N[C@@H](C)c2ncnn2-c2ncccn2)c(Cl)cc1Br` [Example P290, 1-(4-bromo-2-chloro-5-methyl-phenyl)-3-[(1S)-1-(2-pyrimidin-2-yl-1,2,4-triazol-3-yl)ethyl]urea], with no less than 80%. Regarding `Cc1cc(Br)c(Cl)cc1NC(=O)N[C@@H](C)c1ncnn1-c1ncccn1` [Example P299, 1-(4-bromo-5-chloro-2-methyl-phenyl)-3-[(1S)-1-(2-pyrimidin-2-yl-1,2,4-triazol-3-yl)ethyl]urea], in the experiment with Chilo suppressalis, the percent control (mortality, anti-feedant effect or growth inhibition) at 200 ppm was no less than 80%. In addition, in the experiment with Plutella xylostella, the percent effect (mortality or growth inhibition) at 200 ppm is no less than 80%.

`Cc1cc(Cl)c(Br)cc1NC(=O)N[C@@H](C)c1ncnn1-c1ncccn1` [Example P305, 1-(5-bromo-4-chloro-2-methyl-phenyl)-3-[(1S)-1-(2-pyrimidin-2-yl-1,2,4-triazol-3-yl)ethyl]urea]: in the experiment on Plutella xylostella, the percent effect (mortality or growth inhibition) at 200 ppm was no less than 80%.

Consider `COc1cc(Br)c(Cl)cc1NC(=O)N[C@@H](C)c1ncnn1-c1ncccn1` [Example P368, 1-(4-bromo-5-chloro-2-methoxy-phenyl)-3-[(1S)-1-(2-pyrimidin-2-yl-1,2,4-triazol-3-yl)ethyl]urea], for which the percent effect (mortality or growth inhibition) at 200 ppm in the experiment with Plutella xylostella is no less than 80%.

On to `C[C@H](NC(=O)Nc1cc(F)c(Cl)cc1I)c1ncnn1-c1ncccn1` [Example P376, 1-(4-chloro-5-fluoro-2-iodo-phenyl)-3-[(1S)-1-(2-pyrimidin-2-yl-1,2,4-triazol-3-yl)ethyl]urea], for which, in the experiment with Chilo suppressalis, the percent control (mortality, anti-feedant effect or growth inhibition) at 200 ppm is no less than 80%. In addition, in the experiment with Plutella xylostella, the percent effect (mortality or growth inhibition) at 200 ppm is no less than 80%.
